Target: CDK2/Cyclin E1 (Homo sapiens (Human), UniProt P24941)
Experiment: CDK2/Cyclin E1 HTRF enzyme activity assay (Example A)
Type: biochemical
Details: 1 mM ATP
Experimental: Assays were conducted in white 384-well polystyrene plates in a final reaction volume of 8 μL. […] HTRF signals were read after 1 hour at room temperature on a PHERAstar FS plate reader (BMG Labtech). Data was analyzed with IDBS XLFit and GraphPad Prism 5.0 software using a three or four parameter dose response curve to determine IC50 for each compound.

Row | Compound | IC50 [nM]
1 | Cn1cc(-c2nc(NC3CCN(S(C)(=O)=O)CC3)ncc2C(F)(F)F)nc1CO [Example 17, (1-Methyl-4-(2-((1-(methylsulfonyl)piperidin-4-yl)amino)-5-(trifluoromethyl)pyrimidin-4-yl)-1H-imidazol-2-yl)methanol] | ≤ 50
2 | C[C@@H]1CN(S(=O)(=O)C2CC2)CC[C@@H]1Nc1ncc(C(F)(F)F)c(-c2cn(-c3ccc(CN(C)C)cc3Cl)cn2)n1 [Example 222, 4-(1-(2-Chloro-4-((dimethylamino)-methyl)phenyl)-1H-imidazol-4-yl)-N-((3R,4S)-1-(cyclo-propylsulfonyl)-3-methylpiperidin-4-yl)-5-(trifluoro-methyl)pyrimidin-2-amine] | ≤ 50
3 | CS(=O)(=O)N1CCC(Nc2ncc(C(F)(F)F)c(-c3cn(-c4ccccc4F)c(Br)n3)n2)CC1 [Example 461, 4-(2-Bromo-1-(2-fluorophenyl)-1H-imidazol-4-yl)-N-(1-(methylsulfonyl)piperidin-4-yl)-5-(trifluoromethyl)pyrimidin-2-amine] | ≤ 50
4 | CS(=O)(=O)N1CCC(Nc2ncc(C(F)(F)F)c(-c3cn(-c4ccc(CN5CCCC5)cc4Cl)cn3)n2)CC1 [Example 178, 4-(1-(2-Chloro-4-(pyrrolidin-1-ylmethyl)phenyl)-1H-imidazol-4-yl)-N-(1-(methylsulfonyl)piperidin-4-yl)-5-(trifluoromethyl)pyrimidin-2-amine] | ≤ 50
5 | CS(=O)(=O)N1CCC(Nc2ncc(C(F)(F)F)c(-c3cn(CC(F)(F)F)cn3)n2)CC1 [Example 23, N-(1-(Methylsulfonyl)piperidin-4-yl)-4-(1-(2,2,2-trifluoroethyl)-1H-imidazol-4-yl)-5-(trifluoromethyl)pyrimidin-2-amine] | ≤ 50
6 | CCN(C)Cc1ccc(-n2cc(-c3nc(NC4CCN(S(C)(=O)=O)CC4)ncc3C(F)(F)F)nc2C)c(F)c1 [Example 358, 4-(1-(4-((Ethyl(methyl)amino)methyl)-2-fluorophenyl)-2-methyl-1H-imidazol-4-yl)-N-(1-(methylsulfonyl)piperidin-4-yl)-5-(trifluoromethyl)pyrimidin-2-amine] | ≤ 50
7 | Cn1cnc(-c2nc(NC3CCN(S(C)(=O)=O)CC3)ncc2C(F)(F)F)c1 [Example 11, 4-(1-Methyl-1H-imidazol-4-yl)-N-(1-(methylsulfonyl)piperidin-4-yl)-5-(trifluoromethyl)pyrimidin-2-amine] | ≤ 50
8 | COc1nccc(-n2cc(-c3nc(N[C@H]4CCN(S(C)(=O)=O)C[C@H]4F)ncc3C(F)(F)F)nc2C)c1F [Example 311, N-((3R,4S)-3-Fluoro-1-(methylsulfonyl)piperidin-4-yl)-4-(1-(3-fluoro-2-methoxypyridin-4-yl)-2-methyl-1H-imidazol-4-yl)-5-(trifluoromethyl)pyrimidin-2-amine] | ≤ 50
9 | CN1CCN(Cc2cc(F)c(-n3cnc(-c4nc(NC5CCN(S(C)(=O)=O)CC5)ncc4C(F)(F)F)c3)c(F)c2)CC1 [Example 352, 4-(1-(2,6-Difluoro-4-((4-methylpiperazin-1-yl)methyl)phenyl)-1H-imidazol-4-yl)-N-(1-(methylsulfonyl)piperidin-4-yl)-5-(trifluoromethyl)pyrimidin-2-amine] | ≤ 50
10 | CS(=O)(=O)N1CCC(Nc2ncc(C(F)(F)F)c(-c3cn(-c4cccc(CCN5CCC5)c4Cl)cn3)n2)CC1 [Example 373, 4-(1-(3-(2-(Azetidin-1-yl)ethyl)-2-chlorophenyl)-1H-imidazol-4-yl)-N-(1-(methylsulfonyl)piperidin-4-yl)-5-(trifluoromethyl)pyrimi-din-2-amine] | ≤ 50
11 | CS(=O)(=O)N1CCC(Nc2ncc(C(F)(F)F)c(-c3cn(-c4cccc(CNC5CC5)c4Cl)cn3)n2)CC1 [Example 81, 4-(1-(2-Chloro-3-((cyclopropylamino)methyl)phenyl)-1H-imidazol-4-yl)-N-(1-(methylsulfonyl)piperidin-4-yl)-5-(trifluoromethyl)pyrimidin-2-amine] | ≤ 50
12 | CN(C)CCc1ccc(-n2cnc(-c3nc(NC4CCN(S(C)(=O)=O)CC4)ncc3C(F)(F)F)c2)c(C#N)c1 [Example 433, 5-(2-(Dimethylamino)ethyl)-2-(4-(2-((1-(methylsulfonyl)piperidin-4-yl)amino)-5-(trifluoromethyl)pyrimidin-4-yl)-1H-imidazol-1-yl)benzonitrile] | ≤ 50
13 | Cc1nc(-c2nc(NC3CCN(S(C)(=O)=O)CC3)ncc2C(F)(F)F)cn1-c1ccc(N2CCC(N3CCN(C)CC3)CC2)cc1F [Example 415, 4-(1-(2-Fluoro-4-(4-(4-methylpiperazin-1-yl)piperidin-1-yl)phenyl)-2-methyl-1H-imidazol-4-yl)-N-(1-(methylsulfonyl)piperidin-4-yl)-5-(trifluoromethyl)pyrimidin-2-amine] | ≤ 50

Results, then the compound that gave them:

Row | IC50 [nM] | Compound
14 | ≤ 50 | CC(O)c1cccc(-n2cnc(-c3nc(NC4CCN(S(C)(=O)=O)CC4)ncc3C(F)(F)F)c2)c1Cl (centres unmarked) [Example 83, 1-(2-Chloro-3-(4-(2-((1-(methylsulfonyl)piperidin-4-yl)amino)-5-(trifluoromethyl)pyrimidin-4-yl)-1H-imidazol-1-yl)phenyl)ethan-1-ol]
15 | ≤ 50 | CC1(O)CCN(Cc2ccc(-n3cnc(-c4nc(NC5CCN(S(C)(=O)=O)CC5)ncc4C(F)(F)F)c3)c(C(F)(F)F)c2)CC1 [Example 262, 4-Methyl-1-(4-(4-(2-((1-(methylsulfonyl)piperidin-4-yl)amino)-5-(trifluoromethyl)pyrimidin-4-yl)-1H-imidazol-1-yl)-3-(trifluoromethyl)benzyl) piperidin-4-ol]
16 | ≤ 50 | COc1nccc(-n2cnc(-c3nc(N[C@H]4CCN(S(C)(=O)=O)C[C@H]4F)ncc3C(F)(F)F)c2)c1Cl [Example 300, 4-(1-(3-Chloro-2-methoxypyridin-4-yl)-1H-imidazol-4-yl)-N-((3R,4S)-3-fluoro-1-(methylsulfonyl)piperidin-4-yl)-5-(trifluoromethyl)pyrimidin-2-amine]
17 | ≤ 50 | C[C@@H]1CN(S(=O)(=O)c2cn(C)cn2)CC[C@@H]1Nc1ncc(C(F)(F)F)c(-c2cn(-c3cccc(C#N)c3Cl)cn2)n1 [Example 155, 2-Chloro-3-(4-(2-(((3R,4S)-3-methyl-1-((1-methyl-1H-imidazol-4-yl)sulfonyl)piperidin-4-yl)amino)-5-(trifluoromethyl)pyrimidin-4-yl)-1H-imidazol-1-yl)benzonitrile]
18 | ≤ 50 | CS(=O)(=O)N1CCC(Nc2ncc(C(F)(F)F)c(-c3cn(-c4ccc(CN5CC6(CC(O)C6)C5)cc4Cl)cn3)n2)CC1 [Example 202, 2-(3-Chloro-4-(4-(2-((1-(methylsulfonyl)-piperidin-4-yl)amino)-5-(trifluoromethyl)-pyrimidin-4-yl)-1H-imidazol-1-yl)benzyl)-2-azaspiro[3.3]heptan-6-ol]
19 | ≤ 50 | CN(C)Cc1ccc(-n2cnc(-c3nc(NC4CCN(S(C)(=O)=O)CC4)ncc3C(F)(F)F)c2)c(F)c1 [Example 267, 4-(1-(4-((Dimethylamino)methyl)-2-fluorophenyl)-1H-imidazol-4-yl)-N-(1-(methylsulfonyl)piperidin-4-yl)-5-(trifluoromethyl)pyrimidin-2-amine]
20 | ≤ 50 | CS(=O)(=O)N1CCC(Nc2ncc(C(F)(F)F)c(-c3cn(-c4ccc(CCN5CCC5)cc4Cl)cn3)n2)CC1 [Example 158, 4-(1-(4-(2-(Azetidin-1-yl)ethyl)-2-chloro-phenyl)-1H-imidazol-4-yl)-N-(1-(methyl-sulfonyl)piperidin-4-yl)-5-(trifluoro-methyl)pyrimidin-2-amine]

From patent publication US11427567B2, “Imidazolyl pyrimidinylamine compounds as CDK2 inhibitors” (Incyte Corporation, priority 2019, dated 2022)
